Data as given in patent publication US10179761B2, “Compounds, pharmaceutical composition and their use in treating neurodegenerative diseases” (UNIVERSITE DE LILLE 2 DROIT ET SANTE, priority 2014, dated 2019).
Several values for one entry are separate records, joined by “and”; a condition that tells them apart may be missing. Equal values may be shown once. Read-outs that look alike come from different tables or passages of the source.

Key:
σ2 receptors = σ2 receptors (Homo sapiens (Human), UniProt Q5BJF2); assay: σ2 binding assay, Jurkat cell membranes, [3H]-DTG in presence of (+)-pentazocine; conditions: read-out: Sigma 2 Ki
Experimental: (§1) The σ binding assays were performed according to Ganapathy et al. (Ganapathy, M. E.; Prasad, P. D.; Huang, W.; Seth, P.; Leibach, F. H.; Ganapathy, V. Molecular and ligand-binding characterization of the sigma-receptor in the Jurkat human T lymphocyte cell line. J. Pharmacol. Exp. Ther. 1999, 289, 251-260). […] The σ2 binding assay was performed by incubating Jurkat cell membranes ([…] protein per tube) with [^3H]-DTG (25 nM) in presence of (+)-pentazocine (1 μM) to saturate σ1 receptors, and a range of concentrations of tested compounds, at room temperature for 1 hour in 5 mM Tris/HCl buffer (pH=7.4). The final assay volume was 0.5 mL. Binding was terminated by rapid filtration through Wathman GF/B filters, which were then washed with 5×1 mL ice-cold NaCl solution and allowed to dry before bound radioactivity was measured using liquid scintillation counting. Nonspecific binding was determined, in both assays, under similar conditions, but in presence of 10 μM unlabeled haloperidol. Inhibition constants (Ki) were calculated from the IC50 values according to the method of Cheng and Prusoff (Cheng, Y.; Prusoff, W. H. Relationship between the inhibition constant (Ki) and the concentration of inhibitor which causes 50 percent inhibition (IC50) of an enzymatic reaction. Biochem Pharmacol. 1973, 22 (23), 3099-108): […]

σ1 receptors [1] = target: T1, σ1 receptors (Homo sapiens (Human), UniProt Q99720); assay: σ1 binding assay, Jurkat cell membranes, [3H](+)-pentazocine; conditions: selectivity, Ki sigma 2 / Ki sigma 1
Experimental: as §1

σ1 receptors [2] = target: T1, σ1 receptors; assay: as above; conditions: hydrochloride salts; mean of 2 or 3 independent experiments; Ki from IC50 (Cheng-Prusoff); read-out: Sigma 1 Ki
Male Swiss mice [3] = assay: Dizocilpine-induced learning deficits: spontaneous alternation in the Y-maze; format: in vivo; conditions: NE-100 3 mg/kg + dizocilpine 0.15 mg/kg i.p.
Experimental: (§2) The activity of compound 3.1.10 was evaluated on the prevention of the dizocilpine-induced learning deficits measured using two behavioral tests. The present experiment tested if its anti-amnesic activity could be blocked by pretreatment with the reference sigma-1 receptor antagonist NE-100.
(§3) • Sixty (60) mice were used. Behavioral testing started one week after the arrival of the animals in the AMYLGEN animal facility. • 5 treatment groups were designed and used as follows:
(§4) • Vehicle 1 was physiological saline for dizocilpine, DMSO 2% in water for compound 3.1.10 • Animals were used at day 1 in the Y-maze test and at days 2 and 3 in the passive avoidance test, with training at day 2 and retention at day 3. • Test compounds, compound 3.1.10 and/or NE-100 were administered 10 min before dizocilpine (at 0.15 mg/kg i.p.) or vehicle. • Dizocilpine or vehicle 1 was administered 20 min before the Y-maze test session on day 1. • Dizocilpine or vehicle 1 was administered 20 min before the passive avoidance training session on day 2. Drugs were not injected before the retention session on day 3. • The whole experiment program was performed in a single serie experiment. • Treatments were randomized. 2.1.2. Animals
Male Swiss mice, 6 weeks old and weighing 30-35 g, from JANVIER (Saint Berthevin, France), were housed in groups with access to food and water ad libitum, except during experiments. They were kept in a temperature and humidity controlled animal facility on a 12 h/12 h light:dark cycle (lights on at 7:00 am). […]
Animals were tested for spontaneous alternation performance in the Y-maze, an index of spatial working memory. […] The number of maximum alternations was therefore the total number of arm entries minus two and the percentage of alternation was calculated as: (actual alternations/maximum alternations)×100. […]
All values, except passive avoidance latencies, were expressed as mean±S.E.M. Statistical analyses were performed using two-way ANOVA (F value), with genotype and peptide treatment as independent factors, followed by a Dunn's post-hoc multiple comparison test.

Male Swiss mice [4] = assay: Dizocilpine-induced learning deficits: step-through passive avoidance test; format: in vivo; conditions: NE-100 3 mg/kg + dizocilpine 0.15 mg/kg i.p.
Experimental: as §2, §3, §4
Male Swiss mice, 6 weeks old and weighing 30-35 g, from JANVIER (Saint Berthevin, France), were housed in groups with access to food and water ad libitum, except during experiments. […]
The apparatus is a two-compartments (15×20×15 cm high) box with one illuminated with white polyvinylchloride walls and the other darkened with black polyvinylchloride walls and a grid floor. […] The step-through latency (the latency spent to enter the dark compartment) and the number of vocalizations was recorded. […] The step-through latency was recorded up to 300 s. When the mouse entered the dark compartment or 300 s has elapsed (they were therefore manually placed in it), the escape latency (latency to exit from the dark compartment) was recorded up to 300 s.
They were therefore analyzed using a Kruskal-Wallis non-parametric ANOVA (H value), followed by a Dunn's multiple comparison test.

[5] = hydrochloride salts, mean of 2 or 3 independent experiments, Ki from IC50 (Cheng-Prusoff)

Sequence of σ2 receptors (Q5BJF2 whole entry): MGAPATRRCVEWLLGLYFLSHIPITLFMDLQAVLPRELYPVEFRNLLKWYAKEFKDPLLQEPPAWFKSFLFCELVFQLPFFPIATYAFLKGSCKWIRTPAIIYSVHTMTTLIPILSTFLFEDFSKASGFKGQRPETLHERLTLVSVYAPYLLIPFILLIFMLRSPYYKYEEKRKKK
T1 sequence (Q99720 whole entry): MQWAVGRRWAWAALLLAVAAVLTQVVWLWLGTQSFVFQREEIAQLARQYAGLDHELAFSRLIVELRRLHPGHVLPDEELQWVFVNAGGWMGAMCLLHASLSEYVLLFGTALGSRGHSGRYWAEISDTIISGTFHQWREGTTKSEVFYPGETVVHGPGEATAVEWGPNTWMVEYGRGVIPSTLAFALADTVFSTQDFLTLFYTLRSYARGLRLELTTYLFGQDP

With CN(CCCNC(=O)c1ccc(F)cc1)Cc1ccccc1 [Compound 3.1.6, N-[3-(benzylmethylamino)propyl]-4-fluorobenzamide] the Ki (σ2 receptors; [5]) was 470 nM, the “Ratio σ2/σ1” value (σ1 receptors [1]) was 24 and the Ki (σ1 receptors [2]) was 20 nM.

CN(CCCNC(=O)c1cccc(Cl)c1)Cc1ccccc1 [Compound 3.1.8, N-[3-(benzylmethylamino)propyl]-3-chlorobenzamide] was tested, and the Ki (σ2 receptors; [5]) was 340 nM, the “Ratio σ2/σ1” value (σ1 receptors [1]) was 34 and the Ki (σ1 receptors [2]) was 10 nM.

Work on CN(CCNC(=O)c1ccc(Cl)cc1)Cc1ccccc1 [Compound 3.1.9, N-[3-(2-(N-methylbenzyl)amino)ethyl]-4-chlorobenzamide] yielded a Ki (σ2 receptors; [5]) of 850 nM.

In the case of CN(CCCNC(=O)c1ccc(Cl)cc1)CCc1ccccc1 [Compound 3.1.12, N-[3-(N-methyl-2-phenylethylamino)propyl]-4-chlorobenzamide], the Ki (σ2 receptors; [5]) is reported as 200 nM, the “Ratio σ2/σ1” value (σ1 receptors [1]) is reported as 47 and the Ki (σ1 receptors [2]) is reported as 4.3 nM.

Work on O=C(NCCCNCN1Cc2ccccc2C1)c1ccc(Cl)cc1 [Compound 3.1.15] yielded a Ki (σ1 receptors [2]) of 19 nM.

For CN(CCCNC(=O)c1cccc(Br)c1)Cc1ccccc1 [Compound 3.1.21, N-[3-(benzylmethylamino)propyl]-3-bromobenzamide], the Ki (σ2 receptors; [5]) was 350 nM, the “Ratio σ2/σ1” value (σ1 receptors [1]) was 90 and the Ki (σ1 receptors [2]) was 3.9 nM.

For CN(CCCNC(=O)c1ccc(Cl)cc1Cl)Cc1ccccc1 [Compound 3.1.24, N-[3-(benzylmethylamino)propyl]-2,4-dichlorobenzamide], the Ki (σ2 receptors; [5]) was 310 nM, the “Ratio σ2/σ1” value (σ1 receptors [1]) was 238 and the Ki (σ1 receptors [2]) was 1.3 to 3.6 nM and 1.3 nM.

With CN(CCCNC(=O)c1cc(Cl)cc(Cl)c1)Cc1ccccc1 [Compound 3.1.26, N-[3-(benzylmethylamino)propyl]-3,5-dichlorobenzamide] the Ki (σ2 receptors; [5]) was 48 nM, the “Ratio σ2/σ1” value (σ1 receptors [1]) was 2 and the Ki (σ1 receptors [2]) was 23 nM.

CN(CCCNC(=O)c1ccc(Br)cc1F)Cc1ccccc1 [Compound 3.1.27, N-[3-(benzylmethylamino)propyl]-4-bromo-2-fluorobenzamide] showed a Ki (σ1 receptors [2]) of 2.9 nM.

With CN(CCNC(=O)c1ccc(Cl)cc1Cl)Cc1ccccc1 [Compound 3.1.34, N-(2-(benzyl(methyl)amino)ethyl)-2,4-dichlorobenzamide] the Ki (σ2 receptors; [5]) was 110 nM, the “Ratio σ2/σ1” value (σ1 receptors [1]) was 17 and the Ki (σ1 receptors [2]) was 6.5 nM.

CN(CCNC(=O)c1ccc(C#N)cc1)Cc1ccccc1 [Compound 3.1.36, N-(2-(benzyl(methyl)amino)ethyl)-4-cyanobenzamide] was tested, and the Ki (σ2 receptors; [5]) was 170 nM and the Ki (σ1 receptors [2]) was 1.2 nM.

CN(CCNC(=O)c1ccc([N+](=O)[O-])cc1)Cc1ccccc1 [Compound 3.1.37, N-(2-(benzyl(methyl)amino)ethyl)-4-nitrobenzamide] showed a Ki (σ2 receptors; [5]) of 1400 nM and a Ki (σ1 receptors [2]) of 3.6 nM.

For CN(CCC(=O)NCc1ccc(Cl)cc1)Cc1ccccc1 [Compound 3.4a, N-(4-chlorobenzyl)-3-(benzylmethylamino)propanamide], the Ki (σ2 receptors) was 410 nM, the “Ratio σ2/σ1” value (σ1 receptors [1]) was 241 and the Ki (σ1 receptors [2]) was 1.7 nM.

CN(CCC(=O)NCc1ccc([N+](=O)[O-])cc1)Cc1ccccc1 [Compound 3.4b, N-(4-Nitrobenzyl)-3-(benzylmethylamino)propanamide] was tested, and the Ki (σ2 receptors) was 6500 nM and the Ki (σ1 receptors [2]) was 1.3 to 3.6 nM and 2.3 nM.

CN(CCC(=O)NCc1ccc(C#N)cc1)Cc1ccccc1 [Compound 3.4c, N-(4-Cyanobenzyl)-3-(benzylmethylamino)propanamide] was tested, and the Ki (σ2 receptors) was 1800 nM, the “Ratio σ2/σ1” value (σ1 receptors [1]) was 321 and the Ki (σ1 receptors [2]) was 5.6 nM.

For CN(CCC(=O)NCc1ccc(Cl)cc1Cl)Cc1ccccc1 [Compound 3.4d, N-(2,4-Dichlorobenzyl)-3-(benzylmethylamino)propanamide], the Ki (σ2 receptors) was 120 nM, the “Ratio σ2/σ1” value (σ1 receptors [1]) was 52 and the Ki (σ1 receptors [2]) was 2.3 nM.

CN(CCC(=O)NCc1cccc(Cl)c1)Cc1ccccc1 [Compound 3.4e, N-(3-Chlorobenzyl)-3-(benzylmethylamino)propanamide] was tested, and the Ki (σ2 receptors) was 200 nM, the “Ratio σ2/σ1” value (σ1 receptors [1]) was 317 and the Ki (σ1 receptors [2]) was 0.63 nM.

CCCN(CCC)CCc1ccc(OC)c(OCCc2ccccc2)c1.Cl [NE-100, reference compound] was tested, and the “effect of NE-100 by itself on dizocilpine-induced deficits, Y-maze test” value (Male Swiss mice [3]) was “devoid of effect by itself” and the “effect of NE-100 by itself on dizocilpine-induced deficits, passive avoidance test” value (Male Swiss mice [4]) was “devoid of effect by itself”.
